Test system: 857933-349-R-J2-PDC complex spheroids, viability
Experiment: Anticancer human tumor 857933-349-R-J2-PDC patient-derived colon adenocarcinoma cell line growth inhibition [GQUAD]
Conditions: for IC50: curve of first compound; for viability, T/C: stronger effect = lower value
How it was run: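 Viability of tumor cells grown as complex spheroids with endothelial and stromal cells, exposed to drug combinations. Top concentration at or near clinical Cmax (else 10 microM), diluted in half-log increments.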
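Note: spheroids exposed to compounds for one week before readout.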
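Throughout, for viability, T/C: percent viability relative to vehicle DMSO wells taken as 100%.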

Structure (SMILES): COc1cc(C2c3cc4c(cc3C(OC3OC5COC(C)OC5C(O)C3O)C3COC(=O)C23)OCO4)cc(OC)c1O (configuration not stated) + CN(C)c1ccc(Nc2c3ccc(NC(=O)CCN4CCCC4)cc3nc3cc(NC(=O)CCN4CCCC4)ccc23)cc1
- IC50 (second compound 0.0316 µM): 6.11 µM
- IC50 (second compound 0.1 µM): 6.68 µM
- IC50 (second compound 0.316 µM): 5.7 µM
- IC50 (second compound 1 µM): 5.97 µM
- IC50 (second compound 3.16 µM): 5.78 µM
- IC50 (second compound 10 µM): 5.77 µM
- viability, T/C (second compound 0.0316 µM, first compound 0.0316 µM): 98.2%
- viability, T/C (second compound 0.0316 µM, first compound 0.1 µM): 95.4%
- viability, T/C (second compound 0.0316 µM, first compound 0.316 µM): 80.3%
- viability, T/C (second compound 0.0316 µM, first compound 1 µM): 79.3%
- viability, T/C (second compound 0.0316 µM, first compound 3.16 µM): 58.8%
- viability, T/C (second compound 0.0316 µM, first compound 10 µM): 42.1%
- viability, T/C (second compound 0.1 µM, first compound 0.0316 µM): 96.3%
- viability, T/C (second compound 0.1 µM, first compound 0.1 µM): 102%
- viability, T/C (second compound 0.1 µM, first compound 0.316 µM): 84.3%
- viability, T/C (second compound 0.1 µM, first compound 1 µM): 76.3%
- viability, T/C (second compound 0.1 µM, first compound 3.16 µM): 59.6%
- viability, T/C (second compound 0.1 µM, first compound 10 µM): 44.8%
- viability, T/C (second compound 0.316 µM, first compound 0.0316 µM): 102%
- viability, T/C (second compound 0.316 µM, first compound 0.1 µM): 95.8%
- viability, T/C (second compound 0.316 µM, first compound 0.316 µM): 79.1%
- viability, T/C (second compound 0.316 µM, first compound 1 µM): 70.2%
- viability, T/C (second compound 0.316 µM, first compound 3.16 µM): 60.2%
- viability, T/C (second compound 0.316 µM, first compound 10 µM): 41.8%
- viability, T/C (second compound 1 µM, first compound 0.0316 µM): 101%
- viability, T/C (second compound 1 µM, first compound 0.1 µM): 89.6%
- viability, T/C (second compound 1 µM, first compound 0.316 µM): 83.3%
- viability, T/C (second compound 1 µM, first compound 1 µM): 68.4%
- viability, T/C (second compound 1 µM, first compound 3.16 µM): 61.6%
- viability, T/C (second compound 1 µM, first compound 10 µM): 41.6%
- viability, T/C (second compound 3.16 µM, first compound 0.0316 µM): 90.8%
- viability, T/C (second compound 3.16 µM, first compound 0.1 µM): 81.2%
- viability, T/C (second compound 3.16 µM, first compound 0.316 µM): 84.6%
- viability, T/C (second compound 3.16 µM, first compound 1 µM): 71.8%
- viability, T/C (second compound 3.16 µM, first compound 3.16 µM): 60.9%
- viability, T/C (second compound 3.16 µM, first compound 10 µM): 40.3%
- viability, T/C (second compound 10 µM, first compound 0.0316 µM): 74.4%
- viability, T/C (second compound 10 µM, first compound 0.1 µM): 76.9%
- viability, T/C (second compound 10 µM, first compound 0.316 µM): 71%
- viability, T/C (second compound 10 µM, first compound 1 µM): 67%
- viability, T/C (second compound 10 µM, first compound 3.16 µM): 58.2%
- viability, T/C (second compound 10 µM, first compound 10 µM): 42.7%
